Experimental data published in patent US7214673B2, “Piperazine substituted aryl benzodiazepines and their use as dopamine receptor antagonists for the treatment of psychotic disorders” (Eli Lilly and Company, priority 2002, dated 2007).
Counter-ions that a name gives are not always drawn.

Tests used:
Dopamine D2 receptor = molecular target: T1, Dopamine D2 receptor (Homo sapiens, UniProt P14416); assay: Dopamine D2 receptor binding assay ([125I]iodospiperone); settings: [125I]iodospiperone 0.1 nM, D2 receptor membranes, 2 hours at room temperature; read-out: Relative D2 Receptor Binding Affinity Ki
T1 construct: purchased Receptor Biology (now owned by NEN) RBHD2CM
Method: Serotonin 5-HT6 and Dopamine D2 Binding Assay Protocol
The assay buffers used are 50 mM Tris-HCl pH 7.4, 120 mM NaCl, 5 mM KCl, 5 mM MgCl2, 1 mM EDTA for the Dopamine D2s receptor binding assay. […] The membranes used are from Receptor Biology (now owned by NEN), Cat #RBHD2CM for the D2 receptor.
Compounds are obtained as 10 mM stocks in 100% DMSO. They are diluted to 1 mM in 100% DMSO by adding 180 μL DMSO to 20 μL of stock in 96 well plates using a multidrop. […] This is done using a TECAN robot.
The radioligand is diluted in assay buffer to provide 0.1 nM for the D2 assay. Each vial of membranes is diluted up to 92 mL in assay buffer. The final assay volume is 250 μL consisting of 210 μl of diluted membranes, 20 μL of compound or 10% DMSO for total binding, and 20 μL of diluted radioligand. The compounds are transferred from drug dilution plates into coming 96 well assay plates using a 96 well Multimek pipettor. Radioligand and membranes are added to assay plates using multidrop pipettors. Non-specific binding is determined in wells containing a final concentration of 5 μM haloperidol. The final drug concentration range in half logs is from 10 μM down to 0.1 nM.
After addition of drug, membrane, and ligand, the plates are incubated for 2 hours at room temperature. During this time 96 well Millipore filter plates (MAFBNOB50) are soaked for a least 30 minutes with 200 μL per well of 0.5% polyethyleneimine.
The 0.5% PEI is removed from filterplate wells using a TiterTek MAP aspirator and 200 μL of the incubation mixture is transferred from the incubation plate to the filterplate after mixing. This transfer is done using the 96 tip Mutimek pipettor. After transfer to the filterplate filterplates are extracted and ished twice with 220 μL per well of cold buffer on the MAP aspirator. The peel away bottoms are removed from the filterplates and 60 μL per well of microscint 20 scintillation fluid is added per well using a multidrop. Plates are placed into suitable holders and are left at room temperature for 3 hours and are counted for ^3H in either a Wallac Microbeta counter or on a Packard Topcount.

T1 sequence (P14416 1-414 isoform P14416-2): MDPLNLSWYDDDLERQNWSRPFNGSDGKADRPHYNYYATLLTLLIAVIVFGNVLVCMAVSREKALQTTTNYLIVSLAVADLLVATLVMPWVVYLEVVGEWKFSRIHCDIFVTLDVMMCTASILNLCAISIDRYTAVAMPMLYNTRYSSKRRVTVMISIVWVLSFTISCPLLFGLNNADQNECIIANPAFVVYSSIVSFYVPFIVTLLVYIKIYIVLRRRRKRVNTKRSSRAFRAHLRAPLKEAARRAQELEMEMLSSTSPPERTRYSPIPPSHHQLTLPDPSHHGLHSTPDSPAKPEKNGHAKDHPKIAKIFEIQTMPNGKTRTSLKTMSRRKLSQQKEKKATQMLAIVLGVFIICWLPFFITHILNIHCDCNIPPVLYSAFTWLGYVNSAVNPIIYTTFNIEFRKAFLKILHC

Ki (Dopamine D2 receptor) [nM] | melting point | SMILES
10 to 100 | 75 to 84 °C | Cc1cc2c(s1)Nc1ccccc1N=C2N1CCN[C@@H](CCc2ccccc2)C1 [Example 59, 2-Methyl-10-(S)-(3-phenethyl-piperazin-1-yl)-4H-3-thia-4,9-diazabenzo[f]azulene]
< 10 | 169 to 170 °C | Cc1cc2c(s1)Nc1ccccc1N=C2N1CCN[C@@H](Cc2ccccc2)C1 [Example 61]
10 to 100 | 92 to 101 °C | Cc1ccc(C[C@H]2CN(C3=Nc4ccccc4Nc4sc(C)cc43)CCN2)cc1 [Example 69]
< 10 | 80 to 97 °C | Cc1cccc(C[C@H]2CN(C3=Nc4ccccc4Nc4sc(C)cc43)CCN2)c1 [Example 70]
< 10 | 84 to 102 °C | Cc1cc2c(s1)Nc1ccccc1N=C2N1CCN[C@@H](Cc2ccccc2F)C1 [Example 71]
10 to 100 | 87 to 99 °C | Cc1cc2c(s1)Nc1ccccc1N=C2N1CCN[C@@H](Cc2cccc(F)c2)C1 [Example 72]
< 10 | 95 to 109 °C | COc1ccccc1C[C@H]1CN(C2=Nc3ccccc3Nc3sc(C)cc32)CCN1 [Example 75]
< 10 | 96 to 109 °C | COc1cccc(C[C@H]2CN(C3=Nc4ccccc4Nc4sc(C)cc43)CCN2)c1 [Example 76]
10 to 100 | 85 to 98 °C | COc1ccc(C[C@H]2CN(C3=Nc4ccccc4Nc4sc(C)cc43)CCN2)cc1 [Example 77]
< 10 | 95 to 104 °C | Cc1cc2c(s1)Nc1ccccc1N=C2N1CCN[C@@H](Cc2cccs2)C1 [Example 80]
< 10 | 91 to 108 °C | Cc1cc2c(s1)Nc1ccccc1N=C2N1CCN[C@@H](Cc2ccc(Cl)cc2)C1 [Example 85]
10 to 100 |  | Cc1cc2c(s1)Nc1ccccc1N=C2N1CCN[C@@H](Cc2cccc(Cl)c2)C1 [Example 87]
< 10 |  | Cc1cc2c(s1)Nc1ccccc1N=C2N1CCN[C@@H](Cc2cc(F)cc(F)c2)C1 [Example 88]
10 to 100 |  | Cc1cc2c(s1)Nc1ccccc1N=C2N1CCN(C)[C@@H](Cc2cccc(Cl)c2)C1 [Example 119]
10 to 100 |  | Cc1cc2c(s1)Nc1ccccc1N=C2N1CCN[C@@H](CCc2ccc(F)cc2)C1 [Example 176, 10-((S)-3-(2-(4-Fluorophenyl)-ethyl)-piperazin-1-yl)-2-methyl-4H-3-thia-4,9-diaza-benzo[f]azulene dihydrochloride]
10 to 100 |  | Cc1cc2c(s1)Nc1ccccc1N=C2N1CCN[C@@H](CCc2cccc(F)c2)C1 [Example 177, 10-((S)-3-(2-(3-Fluoro-phenyl)-ethyl)-piperazin-1-yl))-2-methyl-4H-3-thia-4,9-diaza-benzo[f]azulene dihydrochloride]
10 to 100 |  | Cc1cc2c(s1)Nc1ccccc1N=C2N1CCN[C@@H](CCc2ccccc2F)C1 [Example 178, 10-((S)-3-(2-(2-Fluoro-phenyl)-ethyl)-piperazin-1-yl)-2-methyl-4H-3-thia-4,9-diaza-benzo[f]azulene dihydrochloride]
< 10 |  | COc1ccc(CC[C@H]2CN(C3=Nc4ccccc4Nc4sc(C)cc43)CCN2)cc1 [Example 179, 10-((S)-3-(2-(4-methoxy-phenyl)-ethyl)-piperazin-1-yl)-2-methyl-4H-3-thia-4,9-diaza-benzo[f]azulene dihydrochloride]

Ki (Dopamine D2 receptor) [nM] | melting point | SMILES
< 10 |  | COc1cccc(CC[C@H]2CN(C3=Nc4ccccc4Nc4sc(C)cc43)CCN2)c1 [Example 180, 10-((S)-3-(2-(3-Methoxy-phenyl)-ethyl)-piperazin-1-yl)-2-methyl-4H-3-thia-4,9-diaza-benzo[f]azulene dihydrochloride]
10 to 100 |  | COc1ccccc1CC[C@H]1CN(C2=Nc3ccccc3Nc3sc(C)cc32)CCN1 [Example 181, 10-((S)-3-(2-(2-Methoxy-phenyl)-ethyl)-piperazin-1-yl)-2-methyl-4H-3-thia-4,9-diaza-benzo[f]azulene dihydrochloride]
10 to 100 |  | Cc1cc2c(s1)Nc1ccccc1N=C2N1CCN(C)[C@@H](CCc2ccc(F)cc2)C1 [Example 182, 10-((S)-3-(2-(4-Fluoro-phenyl)-ethyl]-4-methyl-piperazin-1-yl)-2-methyl-4H-3-thia-4,9-diaza-benzo[f]azulene dihydrochloride]
10 to 100 |  | Cc1cc2c(s1)Nc1ccccc1N=C2N1CCN(C)[C@@H](CCc2cccc(F)c2)C1 [Example 183, 10-((S)-3-(2-(3-Fluoro-phenyl)-ethyl)-4-methyl-piperazin-1-yl)-2-methyl-4H-3-thia-4,9-diaza-benzo[f]azulene dihydrochloride]
10 to 100 |  | Cc1cc2c(s1)Nc1ccccc1N=C2N1CCN(C)[C@@H](CCc2ccccc2F)C1 [Example 184, 10-((S)-3-(2-(2-Fluoro-phenyl)-ethyl)-4-methyl-piperazin-1-yl)-2-methyl-4H-3-thia-4,9-diaza-benzo[f]azulene dihydrochloride]
10 to 100 |  | COc1ccc(CC[C@H]2CN(C3=Nc4ccccc4Nc4sc(C)cc43)CCN2C)cc1 [Example 185, 10-((S)-3-(2-(4-Methoxy-phenyl)-ethyl)-4-methyl-piperazin-1-yl)-2-methyl-4H-3-thia-4,9-diaza-benzo[f]azulene dihydrochloride]
< 10 |  | COc1cccc(CC[C@H]2CN(C3=Nc4ccccc4Nc4sc(C)cc43)CCN2C)c1 [Example 186, 10-((S)-3-(2-(3-Methoxy-phenyl)-ethyl)-4-methyl-piperazin-1-yl)-2-methyl-4H-3-thia-4.9-diaza-benzo[f]azulene dihydrochloride]
10 to 100 |  | COc1ccccc1CC[C@H]1CN(C2=Nc3ccccc3Nc3sc(C)cc32)CCN1C [Example 187, 10-((S)-3-(2-(2-Methoxy-phenyl)-ethyl)-4-methyl-piperazin-1-yl)-2-methyl-4H-3-thia-4,9-diaza-benzo[f]azulene dihydrochloride]
< 10 |  | Cc1cc2c(s1)Nc1ccccc1N=C2N1CCN[C@@H](CCCCc2ccccc2)C1 [Example 194]
10 to 100 |  | Cc1cc2c(s1)Nc1ccccc1N=C2N1CCN(C)[C@@H](CCCCc2ccccc2)C1 [Example 195, (S)-2-Methyl-10-(3-(4-phenyl-butyl)-4-methyl-piperazin-1-yl)-4H-3-thia-4,9-diaza-benzo[f]azulene, dihydrochloric acid]
< 10 |  | Cc1nc2c(s1)Nc1ccccc1N=C2N1CCN[C@@H](CCc2ccccc2)C1 [Example 460, (S)-2-Methyl-10-(3-phenethyl-piperazin-1-yl)-4H-3-thia-1,4,9-triaza-benzo[f]azulene dihydrochloride hemihydrate]
10 to 100 |  | Cc1nc2c(s1)Nc1ccccc1N=C2N1CCN(C)[C@@H](CCc2ccccc2)C1 [Example 461, (S)-2-Methyl-10-(4-methyl-3-phenethyl-piperazin-1-yl)-4H-3-thia-1,4,9-triaza-benzo[f]azulene dihydrochloride hemihydrate]
 | 67 °C (dec.) | Cc1ccc2c(c1)C(N1CCN[C@@H](CCc3ccccc3)C1)=Nc1ccccc1N2 [Example 580, 2-Methyl-11-[(S)-3-phenethyl-piperazin-1-yl]-5H-dibenzo[b,e][1,4]diazepine]
 | 65 °C (dec.) | Cc1ccc2c(c1)C(N1CCN(C)[C@@H](CCc3ccccc3)C1)=Nc1ccccc1N2 [Example 581, 2-Methyl-11-[4-methyl-(S)-3-phenethyl-piperazin-1-yl]-5H-dibenzo[b,e][1,4]diazepine]
 | 79 to 92 °C | Clc1ccc2c(c1)N=C(N1CCN[C@@H](Cc3ccccc3)C1)c1ccccc1N2 [Example 585, 11-(3-(S)-Benzyl-piperazin-1-yl)-8-chloro-5H-dibenzo[b,e][1,4]diazepine]
< 10 |  | CC(C)n1nc2c(n1)C(N1CCN[C@@H](CCc3ccccc3)C1)=Nc1ccccc1N2 [Example 594, (S)-2-Isopropyl-10-(3-phenethyl-piperazin-1-yl)-2,4-dihydro-1,2,3,4.9-pentaaza-benzo[f]azulene dihydrochloride hemihydrate]
 | 68 to 72 °C | CN1CCN(C2=Nc3ccccc3Nc3ccc(C(F)(F)F)cc32)CC1 [Example 606, 11-(4-Methyl-piperazin-1-yl)-2-trifluoromethyl-5H-dibenzo[b,e][1,4]diazepine]

SMILES | Ki (Dopamine D2 receptor) [nM] | melting point
CC(C)n1nc2c(n1)C(N1CCN(C)[C@@H](CCc3ccccc3)C1)=Nc1ccccc1N2 [Example 595, (S)-2-Isopropyl-10-(4-methyl-3-phenethyl-piperazin-1-yl)-2,4-dihydro-1,2,3,4,9-pentaaza-benzo[f]azulene dihydrochloride hemihydrate] | 10 to 100 | 
